The values below come from patent publication US20090099158A1, “TETRAHYDROISOQUINOLINE COMPOUNDS AS MODULATORS OF THE HISTAMINE H3 RECEPTOR” (priority 2007, published 2009).

Assay [1] has as its target T1, cloned human H3 receptors (Homo sapiens, UniProt Q9Y5N1).
T1 construct: expressed in transfected cells; host or cells: SK-N-MC cells
Briefly: H3 Receptor Binding (Human). As to conditions: cloned human H3 receptors stably expressed in SK-N-MC cells; average of the results obtained. How it is done: Binding of compounds to the cloned human H3 receptors, stably expressed in SK-N-MC cells, was performed as described by Barbier, A. J. et al. (Br. J. Pharmacol. 2004, 143(5), 649-661). Data for compounds tested in this assay are presented in Table 1 as an average of the results obtained.

Assay [2] deals with T2, human H3 receptor (Homo sapiens, UniProt Q9Y5N1).
T2 construct: expressed in transfected cells; host or cells: SK-N-MC sublines with reporter construct
Briefly: Cyclic AMP Accumulation (human H3 receptor). The class given is cell-based. The note with it: SK-N-MC cells expressing a reporter construct and the human H3 receptor; average; read-out: Human pA2 (converted). From the text:
(§1) Sublines of SK-N-MC cells were created that expressed a reporter construct and either the human or rat H3 receptor. The pA2 values were obtained as described by Barbier et al. (2004). Data for compounds tested in these assays are presented in Table 3, as an average of the results obtained (NT=not tested).

The target of assay [3] is T3, Rat H3 (Rattus norvegicus, UniProt Q9QYN8). Briefly: Cyclic AMP Accumulation (rat H3 receptor). The class given is cell-based. On the set-up: expressed in transfected cells; host or cells: SK-N-MC sublines with reporter construct. As to conditions: SK-N-MC cells expressing a reporter construct and the rat H3 receptor; average; read-out: Rat pA2 (converted).
Text: as §1

Assay [4] deals with T3, Rat H3. Briefly: H3 Receptor Binding (Rat). Further details: A rat brain without cerebellum (Zivic Laboratories Inc., Pittsburgh, Pa.) was homogenized; tissue Zivic Laboratories Inc; host or cells: rat brain without cerebellum (membranes). As to conditions: rat brain (without cerebellum) membranes; 0.8 nM N-[3H]-α-methylhistamine, 60 min at 25° C.; IC50 converted to Ki; average. How it is done: A rat brain without cerebellum (Zivic Laboratories Inc., Pittsburgh, Pa.) was homogenized in 50 mM Tris-HCl/5 mM EDTA and centrifuged at 1,000 rpm for 5 min. The supernatant was removed and recentrifuged at 15,000 rpm for 30 min. Pellets were rehomogenized in 50 mM Tris/5 mM EDTA (pH 7.4). Membranes were incubated with 0.8 nM N-[^3H]-α-methylhistamine plus/minus test compounds for 60 min at 25° C. and harvested by rapid filtration over GF/C glass fiber filters (pretreated with 0.3% polyethylenimine) followed by four washes with buffer. Nonspecific binding was defined in the presence of 100 μM histamine. Inhibitory concentration (responsible for 50% inhibition of maximal effect, IC50) values were determined by a single site curve-fitting program (GraphPad, San Diego, Calif.) and converted to Ki values based on a N-[^3H]-α-methylhistamine dissociation constant (Kd) of 0.8 nM. Data for compounds tested in this assay are presented in Table 2 as an average of the results obtained.

Structures are written as SMILES.

T3 sequence (Q9QYN8 whole entry): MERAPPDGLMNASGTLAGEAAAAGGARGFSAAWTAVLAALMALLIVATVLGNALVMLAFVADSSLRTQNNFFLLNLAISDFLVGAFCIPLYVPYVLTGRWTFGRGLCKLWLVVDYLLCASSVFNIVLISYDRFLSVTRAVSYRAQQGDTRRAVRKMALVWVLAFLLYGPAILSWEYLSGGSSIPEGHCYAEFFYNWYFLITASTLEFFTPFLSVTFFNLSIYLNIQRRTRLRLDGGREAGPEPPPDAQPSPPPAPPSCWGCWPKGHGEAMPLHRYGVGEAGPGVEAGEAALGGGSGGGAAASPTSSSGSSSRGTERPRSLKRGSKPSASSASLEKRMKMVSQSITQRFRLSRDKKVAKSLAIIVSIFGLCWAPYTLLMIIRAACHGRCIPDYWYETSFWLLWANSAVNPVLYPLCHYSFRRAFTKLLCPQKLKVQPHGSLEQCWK
T2 sequence (Q9Y5N1 whole entry): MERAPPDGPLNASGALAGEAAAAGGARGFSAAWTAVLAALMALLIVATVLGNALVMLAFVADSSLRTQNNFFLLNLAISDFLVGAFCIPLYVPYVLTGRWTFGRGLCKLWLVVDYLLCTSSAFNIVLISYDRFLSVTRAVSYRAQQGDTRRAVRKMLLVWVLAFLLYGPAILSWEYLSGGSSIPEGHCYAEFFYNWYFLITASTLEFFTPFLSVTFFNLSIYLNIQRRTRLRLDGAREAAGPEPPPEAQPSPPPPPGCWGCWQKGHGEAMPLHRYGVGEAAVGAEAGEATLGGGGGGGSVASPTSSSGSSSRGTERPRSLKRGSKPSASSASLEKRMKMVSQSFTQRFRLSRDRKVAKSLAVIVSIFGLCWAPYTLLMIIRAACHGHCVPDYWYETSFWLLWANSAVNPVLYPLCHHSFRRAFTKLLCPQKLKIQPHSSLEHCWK
T1 sequence (Q9Y5N1 whole entry): as above

Usually Ki stands for a dissociation constant, usually derived from enzyme kinetics or from competition with a known ligand. Read a high Ki as a looser hold on the target. Take `O=C(c1ccc2c(c1)CCN(Cc1ccccc1)C2)N1CCN(C2CCC2)CC1` [Example 18, (2-Benzyl-1,2,3,4-tetrahydro-isoquinolin-6-yl)-(4-cyclobutyl-piperazin-1-yl)-methanone]: the results for the Ki in assay [1] and in assay [4] were 5 nM and 2 nM, respectively. Besides, the figures for the Kb in assay [2] and in assay [3] were 1.29 nM and 2.4 nM, respectively.
`O=C(c1ccc2c(c1)CCN(C(=O)C1CCCC1)C2)N1CCN(C2CCC2)CC1` [Example 32, [6-(4-Cyclobutyl-piperazine-1-carbonyl)-3,4-dihydro-1H-isoquinolin-2-yl]-cyclopentyl-methanone]: the Ki in assay [1] was 5 nM; in assay [4] it was 135 nM. In addition, the Kb was 8.51 nM in assay [2] and 15.1 nM in assay [3].
As to `CCCC(=O)N1CCc2cc(C(=O)N3CCC[C@H]3CN3CCCC3)ccc2C1` [Example 46, (S)-1-[6-(2-Pyrrolidin-1-ylmethyl-pyrrolidine-1-carbonyl)-3,4-dihydro-1H-isoquinolin-2-yl]-butan-1-one], the affinity in assay [1], expressed as Ki, was 4 nM. Besides, the Kb was 2.82 nM in assay [2] and 18.2 nM in assay [3].
